Organism: Rattus norvegicus
Assay: Open TG-GATES - Regimen: Single
Assay type: toxicity, organism-based, Sprague-Dawley
Design: regimen Single, gender Male, age 6 weeks
Conditions: in vivo, po, 150 mg/kg, route gavage, dose level Middle; for APTT / Bas / Eos / Fbg / Hb / Ht / Lym / MCH / MCHC / MCV / Mono / Neu / PT / Plat / RBC / Ret / WBC: tissue Blood; for KIDNEY_L / KIDNEY_R / KIDNEY_TOTAL: tissue Kidney; for LIVER: tissue Liver; for A/G / ALP / ALT / AST / BUN / CRE / Ca / Cl / DBIL / GLC / IP / K / LDH / Na / PL / RALB / TBIL / TC / TG / TP / gamma-GTP: tissue Plasma

SMILES: CN1C(=O)CCS(=O)(=O)C1c1ccc(Cl)cc1 (configuration not stated) [CHLORMEZANONE]
- TERMINAL_BW (3 h): 230 g
- APTT (3 h): 15.9 s
- Bas (3 h): 0%
- Eos (3 h): 1%
- Fbg (3 h): 314.4 mg/dL
- Hb (3 h): 13.5 g/dL
- Ht (3 h): 39.4%
- Lym (3 h): 77%
- MCH (3 h): 21.7 pg
- MCHC (3 h): 34.1%
- MCV (3 h): 63.6 fL
- Mono (3 h): 2.8%
- Neu (3 h): 18.4%
- PT (3 h): 13.1 s
- Plat (3 h): 123.1 x10_4/uL
- RBC (3 h): 620.2 x10_4/ul
- Ret (3 h): 7.9%
- WBC (3 h): 84.3 x10_2/uL
- KIDNEY_L (3 h): 1 g
- KIDNEY_R (3 h): 1 g
- KIDNEY_TOTAL (3 h): 1.9 g
- LIVER (3 h): 10.6 g
- A/G (3 h): 0.9
- ALP (3 h): 1400.8 IU/L
- ALT (3 h): 49.6 IU/L
- AST (3 h): 75.6 IU/L
- BUN (3 h): 11.6 mg/dL
- CRE (3 h): 0.2 mg/dL
- Ca (3 h): 11.6 mg/dL
- Cl (3 h): 104.2 meq/L
- DBIL (3 h): 0.018 mg/dL
- GLC (3 h): 182.2 mg/dL
- IP (3 h): 9.5 mg/dL
- K (3 h): 4.3 meq/L
- LDH (3 h): 56.8 IU/L
- Na (3 h): 140.6 meq/L
- PL (3 h): 157.6 mg/dL
- RALB (3 h): 2.6 g/dL
- TBIL (3 h): 0.034 mg/dL
- TC (3 h): 87 mg/dL
- TG (3 h): 95.6 mg/dL
- TP (3 h): 5.6 g/dL
- gamma-GTP (3 h): 1 IU/L
- TERMINAL_BW (6 h): 229.6 g
- APTT (6 h): 17.8 s
- Bas (6 h): 0%
- Eos (6 h): 0.6%
- Fbg (6 h): 295 mg/dL
- Hb (6 h): 13.8 g/dL
- Ht (6 h): 41.1%
- Lym (6 h): 77.8%
- MCH (6 h): 22.1 pg
- MCHC (6 h): 33.6%
- MCV (6 h): 65.8 fL
- Mono (6 h): 3.8%
- Neu (6 h): 16.8%
- PT (6 h): 13.6 s
- Plat (6 h): 119.1 x10_4/uL
- RBC (6 h): 624.4 x10_4/ul
- Ret (6 h): 8.5%
- WBC (6 h): 70.9 x10_2/uL
- KIDNEY_L (6 h): 1 g
- KIDNEY_R (6 h): 1 g
- KIDNEY_TOTAL (6 h): 2 g
- LIVER (6 h): 10.1 g
- A/G (6 h): 0.9
- ALP (6 h): 1441.2 IU/L
- ALT (6 h): 41.6 IU/L
- AST (6 h): 71.8 IU/L
- BUN (6 h): 9.2 mg/dL
- CRE (6 h): 0.2 mg/dL
- Ca (6 h): 11.7 mg/dL
- Cl (6 h): 105.6 meq/L
- DBIL (6 h): 0.014 mg/dL
- GLC (6 h): 184.2 mg/dL
- IP (6 h): 11.2 mg/dL
- K (6 h): 4.5 meq/L
- LDH (6 h): 61.4 IU/L
- Na (6 h): 142.8 meq/L
- PL (6 h): 152 mg/dL
- RALB (6 h): 2.7 g/dL
- TBIL (6 h): 0.038 mg/dL
- TC (6 h): 76 mg/dL
- TG (6 h): 57.2 mg/dL
- TP (6 h): 5.7 g/dL
- gamma-GTP (6 h): 1.6 IU/L
- TERMINAL_BW (9 h): 228.1 g
- APTT (9 h): 14 s
- Bas (9 h): 0%
- Eos (9 h): 0.6%
- Fbg (9 h): 329.4 mg/dL
- Hb (9 h): 13.1 g/dL
- Ht (9 h): 38.8%
- Lym (9 h): 74.2%
- MCH (9 h): 21.8 pg
- MCHC (9 h): 33.8%
- MCV (9 h): 64.4 fL
- Mono (9 h): 2.8%
- Neu (9 h): 21.2%
- PT (9 h): 13.3 s
- Plat (9 h): 118.2 x10_4/uL
- RBC (9 h): 603 x10_4/ul
- Ret (9 h): 8%
- WBC (9 h): 89.8 x10_2/uL
- KIDNEY_L (9 h): 1 g
- KIDNEY_R (9 h): 1 g
- KIDNEY_TOTAL (9 h): 1.9 g
- LIVER (9 h): 9 g
- A/G (9 h): 0.9
- ALP (9 h): 1520.8 IU/L
- ALT (9 h): 38.6 IU/L
- AST (9 h): 70.6 IU/L
- BUN (9 h): 9.8 mg/dL
- CRE (9 h): 0.2 mg/dL
- Ca (9 h): 11.3 mg/dL
- Cl (9 h): 105 meq/L
- DBIL (9 h): 0.02 mg/dL
- GLC (9 h): 194.6 mg/dL
- IP (9 h): 11.2 mg/dL
- K (9 h): 4 meq/L
- LDH (9 h): 55.8 IU/L
- Na (9 h): 142.8 meq/L
- PL (9 h): 150.2 mg/dL
- RALB (9 h): 2.6 g/dL
- TBIL (9 h): 0.04 mg/dL
- TC (9 h): 78.4 mg/dL
- TG (9 h): 67.2 mg/dL
- TP (9 h): 5.5 g/dL
- gamma-GTP (9 h): 1.4 IU/L
- TERMINAL_BW (24 h): 227.1 g
- APTT (24 h): 17.4 s
- Bas (24 h): 0%
- Eos (24 h): 1%
- Fbg (24 h): 271.6 mg/dL
- Hb (24 h): 13.4 g/dL
- Ht (24 h): 39.4%
- Lym (24 h): 77%
- MCH (24 h): 21.9 pg
- MCHC (24 h): 34.1%
- MCV (24 h): 64.2 fL
- Mono (24 h): 3.4%
- Neu (24 h): 17.8%
- PT (24 h): 13.3 s
- Plat (24 h): 123.4 x10_4/uL
- RBC (24 h): 615.2 x10_4/ul
- Ret (24 h): 7.5%
- WBC (24 h): 94.1 x10_2/uL
- KIDNEY_L (24 h): 1 g
- KIDNEY_R (24 h): 1 g
- KIDNEY_TOTAL (24 h): 2 g
- LIVER (24 h): 10.9 g
- A/G (24 h): 0.9
- ALP (24 h): 1673.6 IU/L
- ALT (24 h): 50.4 IU/L
- AST (24 h): 82.4 IU/L
- BUN (24 h): 15.6 mg/dL
- CRE (24 h): 0.2 mg/dL
- Ca (24 h): 11.4 mg/dL
- Cl (24 h): 105.4 meq/L
- DBIL (24 h): 0.022 mg/dL
- GLC (24 h): 192 mg/dL
- IP (24 h): 7.6 mg/dL
- K (24 h): 4.2 meq/L
- LDH (24 h): 69.4 IU/L
- Na (24 h): 142 meq/L
- PL (24 h): 138.4 mg/dL
- RALB (24 h): 2.6 g/dL
- TBIL (24 h): 0.028 mg/dL
- TC (24 h): 79.8 mg/dL
- TG (24 h): 119 mg/dL
- TP (24 h): 5.6 g/dL
- gamma-GTP (24 h): 1 IU/L

Reference: ChEMBL document CHEMBL3885861, “Open TG-GATES”
